{"source": "patent US11377452B2", "about": "“Glutamate transporter activators and methods using same” (DREXEL UNIVERSITY, priority 2017, dated 2022)", "key": {"NMDA receptors": {"system": "NMDA receptors", "test": "NMDA-induced calcium response, calcium imaging in cultured cortical neurons", "type": "cell-based, mouse", "conditions": "100 μM NMDA with 3 μM glycine, no Mg2+; AP-V at 40 μM", "description": "To determine whether the compounds have effects on the function of NMDA receptors, calcium imaging recordings from cultured cortical neurons were performed as described previously (Nicolai, et al., 2010, Cell Death Dis. 1:e33).\nPrimary cortical neurons were obtained from the cerebral cortex of neonatal (P1 or P2) C57BL/6 mice, plated at a density of 3000 cells/12 mm round coverslip, and cultured in medium containing Neurobasal A, fetal calf serum (2%), heat-inactivated horse serum (2%), L-glutamax-1 (0.2 mM), and B-27 supplement (2%). Cells were maintained at 37° C. in a humidified atmosphere containing 5% CO2. The calcium imaging experiments were conducted on DIV 1.\nRecordings were performed in living neurons, as described (Xia, et al., 2014, J. Physiol. 592:3443-3461). Briefly, cultured neurons were loaded with a Fura-2 calcium dye in Tyrode's solution containing (in mM) 140 NaCl, 5 KCl, 2 CaCl2, 1 MgCl2, 10 HEPES, and 5.6 glucose. Coverslips were mounted in the imaging chamber (model RC-25, Warner Instruments, Hamden, Conn.) and continuously perfused with Tyrode's solution containing 0.5 μM tetrodotoxin. Images were acquired in 3 s intervals at room temperature (20-22° C.) using an Olympus inverted microscope equipped with a CCD camera (Hamamatsu ORCA-03G, Japan). The fluorescence ratio was determined as the fluorescence intensities excited at 340 and 380 nm with background subtracted. 100 μM NMDA was applied in the presence of 3 μM glycine and in the absence of Mg^2+. The NMDA receptor antagonist AP-V (40 μM) was applied to certify that the result was specifically the NMDA-induced calcium response. Vehicle, GT949, or GT951 was applied, and calcium changes were recorded.\nRecordings were performed in living neurons, as described (Xia, et al., 2014, J. Physiol. 592:3443-3461). Briefly, cultured neurons were loaded with Fura-2 calcium dye in Hank's balanced salt solution (HBSS). 100 μM NMDA was applied in the presence of 3 μM glycine and in the absence of Mg^2+. […] Vehicle, GT949, or GT951 was applied, and calcium currents were recorded."}, "EAAT2 [1]": {"biological_target": "T1, EAAT2 (Homo sapiens, UniProt P43004)", "T1 construct": "expressed in transfected cells; host or cells: COS-7", "T1 sequence (P43004 whole entry)": "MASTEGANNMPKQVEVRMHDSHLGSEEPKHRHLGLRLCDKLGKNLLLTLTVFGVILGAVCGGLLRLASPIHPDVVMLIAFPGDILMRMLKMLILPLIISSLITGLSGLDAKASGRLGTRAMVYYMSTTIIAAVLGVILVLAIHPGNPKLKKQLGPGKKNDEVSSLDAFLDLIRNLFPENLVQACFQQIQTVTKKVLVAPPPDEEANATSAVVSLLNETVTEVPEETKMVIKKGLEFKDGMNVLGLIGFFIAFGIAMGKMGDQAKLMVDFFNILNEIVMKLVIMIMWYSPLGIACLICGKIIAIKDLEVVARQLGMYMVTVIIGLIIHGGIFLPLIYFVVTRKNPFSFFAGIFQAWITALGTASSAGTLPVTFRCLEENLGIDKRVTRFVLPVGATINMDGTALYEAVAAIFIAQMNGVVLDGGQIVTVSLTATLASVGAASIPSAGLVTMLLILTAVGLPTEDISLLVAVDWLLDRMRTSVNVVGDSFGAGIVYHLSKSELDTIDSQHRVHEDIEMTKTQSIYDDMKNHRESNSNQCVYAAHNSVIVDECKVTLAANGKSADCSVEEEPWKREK", "test": "Dose-response glutamate uptake in COS-7 cells transfected with EAAT2", "type": "cell-based", "conditions": "for kind of modulation of EAAT2 glutamate uptake in dose-response assays: COS-7 cells expressing EAAT2", "source_text": "(§1) COS-7 cells were maintained in DMEM with 10% fetal calf serum under 5% CO2. Transfection with empty vector pCMV-5 was used to control for the level of endogenous uptake of radiolabeled substrate in each experimental condition. The specificity of the effect of the compounds was investigated in COS-7 cells transiently transfected with glutamate transporter subtypes EAAT1-3 and monoamine transporters hNET (human noradrenaline transporter), hDAT (dopamine transporter), and hSERT (serotonin transporter).\n(§2) For glutamate uptake assays, subconfluent COS-7 cells were transfected with 0.5 μg of plasmid DNA per well using TransIT-LT1 transfection reagent (Mirus Bio LLC, Madison, Wis.) and plated at a density of ˜100 000 cells per well in 24-well tissue culture plates. For monoamine uptake assays, cells were transfected 0.1 μg of DNA per well as above and plated at a density of 10 000 cells per well in 96-wells plates.\nUptake reactions were initiated by the addition of 50 nM ^3H-L-glutamate, serotonin, dopamine, or noradrenaline, as appropriate.\nAll reactions were carried out for 10 min; then, uptake was terminated by removal of solution, followed by two washes with PBSCM. Cells in 24-well plates were lysed with 1% SDS/0.1 M NaOH. Lysate was transferred to scintillation vials containing 3 mL of scintillation fluid, and radioactivity was quantified in an LS 6500 scintillation counter (Beckman Coulter, Brea, Calif.). For 96-well plates, scintillation fluid was added to each well, and the plate was counted in a Wallac M50 microbeta scintillation analyzer."}, "EAAT3": {"biological_target": "T2, EAAT3 (Homo sapiens, UniProt P43005)", "T2 construct": "expressed in transfected cells; host or cells: COS-7", "T2 sequence (P43005 1-524)": "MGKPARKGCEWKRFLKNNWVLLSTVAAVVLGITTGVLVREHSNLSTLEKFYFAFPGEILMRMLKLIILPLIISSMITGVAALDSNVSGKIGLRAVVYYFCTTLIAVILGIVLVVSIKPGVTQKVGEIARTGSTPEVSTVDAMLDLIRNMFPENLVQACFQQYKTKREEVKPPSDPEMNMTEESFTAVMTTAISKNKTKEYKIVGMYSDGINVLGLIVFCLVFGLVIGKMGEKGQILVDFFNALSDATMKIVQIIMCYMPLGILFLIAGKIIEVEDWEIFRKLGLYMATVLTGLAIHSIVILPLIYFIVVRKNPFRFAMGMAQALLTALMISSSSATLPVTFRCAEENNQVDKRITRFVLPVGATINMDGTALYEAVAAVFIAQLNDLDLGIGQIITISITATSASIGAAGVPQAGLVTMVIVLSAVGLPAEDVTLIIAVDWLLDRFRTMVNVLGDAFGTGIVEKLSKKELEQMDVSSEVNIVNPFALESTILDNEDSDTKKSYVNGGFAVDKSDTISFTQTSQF", "test": "Dose-response glutamate uptake in COS-7 cells transfected with EAAT3", "type": "cell-based", "source_text": "as §1, §2\n[…]. […]\n(§3) All reactions were carried out for 10 min; then, uptake was terminated by removal of solution, followed by two washes with PBSCM. […] Lysate was transferred to scintillation vials containing 3 mL of scintillation fluid, and radioactivity was quantified in an LS 6500 scintillation counter (Beckman Coulter, Brea, Calif.). For 96-well plates, scintillation fluid was added to each well, and the plate was counted in a Wallac M50 microbeta scintillation analyzer."}, "EAAT2 [2]": {"biological_target": "T1, EAAT2", "test": "Kinetic assay of L-glutamate uptake in EAAT2-transfected COS-7 cells", "type": "cell-based", "conditions": "GT949 and GT951 pre-incubated at 1 nM", "source_text": "as §1, §2, §3"}, "EAAT1": {"biological_target": "T3, EAAT1 (Homo sapiens, UniProt P43003)", "T3 construct": "expressed in transfected cells; host or cells: COS-7", "T3 sequence (P43003 whole entry)": "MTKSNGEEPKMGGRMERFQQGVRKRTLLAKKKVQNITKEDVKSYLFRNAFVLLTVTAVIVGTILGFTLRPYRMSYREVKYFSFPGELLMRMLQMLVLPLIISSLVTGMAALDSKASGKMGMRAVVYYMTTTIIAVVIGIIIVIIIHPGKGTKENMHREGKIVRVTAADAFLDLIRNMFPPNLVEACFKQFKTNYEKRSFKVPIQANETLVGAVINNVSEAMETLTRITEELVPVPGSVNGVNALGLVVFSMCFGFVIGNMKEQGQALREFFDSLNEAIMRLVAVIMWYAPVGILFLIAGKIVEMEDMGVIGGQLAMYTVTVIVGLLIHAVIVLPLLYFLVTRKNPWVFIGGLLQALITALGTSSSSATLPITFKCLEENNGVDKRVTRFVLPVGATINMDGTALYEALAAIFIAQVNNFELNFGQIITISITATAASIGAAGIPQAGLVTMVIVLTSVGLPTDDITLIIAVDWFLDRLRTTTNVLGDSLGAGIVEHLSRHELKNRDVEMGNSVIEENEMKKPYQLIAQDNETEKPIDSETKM", "test": "Dose-response glutamate uptake in COS-7 cells transfected with EAAT1", "type": "cell-based", "source_text": "as §1, §2\n[…]. […]\nas §3"}, "cultured astrocytes": {"system": "cultured astrocytes", "test": "Glutamate uptake in cultured astrocytes", "type": "cell-based, rat", "description": "Glia was prepared and cultured according to Shimizu, et al., 2011, J. Visualized Exp. e3257 with modifications. Briefly, cerebral cortices from 2-4 day old Holtzman rat pups were dissected under sterile conditions and placed in 60 mm dishes containing dissection medium (in mM: 16 glucose, 22 sucrose, 135 NaCl, 5 KCl, 1 Na2HPO4, 0.22 KH2PO4, 10 HEPES, pH 7.4, Osmolarity 310+10 mOsm). Tissue was minced with curved scissors and digested in 0.25% trypsin for 15 min. Trypsin activity was ended by transferring tissue pieces to another vial with dissection medium. Tissue was then repeatedly passed through a serological plastic pipette until it was dissociated by trituration in the presence of 60 μg/mL DNase. Cells were pelleted by centrifugation for 15 min at 280 g and resuspended in glia plating medium (90% DMEM, 10% FBS, and 50 μg/mL gentamicin) and transferred to culture flasks kept in a 37° C. incubator (5-10% CO2). After growth for 10 days in vitro (DIV), cells were detached with 0.05% trypsin, centrifuged, and plated at a density of 10 000 cells/well in polylysine-coated 96-well plates. Plates were grown for 14 DIV before uptake assays were performed.\nAssays were performed as described (Timple, et al., 2013, J. Nat. Prod. 76:1889-1895). Briefly, using an Elx50 Biotek plate washer (Winooski, Vt., USA), cells were washed in PBS-CM buffer. For dose-response assays, vehicle and several concentrations of the compounds (0.01 nM to 1 μM) were added and incubated for 10 min at 37° C. Uptake assays were initiated by addition of 50 nM L-[^3H]-glutamate, and incubation was carried on for 10 min at room temperature. Nonspecific uptake was obtained in the presence of 10 μM DL-TBOA.\nReactions were finished by washing the plates twice with PBS-CM and the addition of 100 μL of scintillation fluid to each well. Radioactivity was counted in a microplate scintillation and luminescence counter (Wallac, Shelton, Conn., USA)."}}}
{"smiles": "NC(CCCP(=O)(O)O)C(=O)O", "note": "(racemic) [AP-V, (DL)-2-amino-5-phosphonovaleric acid, reference compound]", "values": [{"measurement": "effect on NMDA-induced calcium response", "setting": "NMDA receptors", "result": "drastically attenuated"}]}
{"smiles": "Cc1ccc(C)c2[nH]c(=O)c(C(c3nnnn3CCc3ccccc3)N3CCN(Cc4ccc5c(c4)OCO5)CC3)cc12", "note": "(stereo not drawn) [GT867, 3-((4-(benzo[d][1,3]dioxol-5-ylmethyl)piperazin-1-yl)(1-phenethyl-1H-tetrazol-5-yl)methyl)-5,8-dimethylquinolin-2(1H)-one]", "values": [{"measurement": "kind of modulation of EAAT2 glutamate uptake in dose-response assays", "setting": "EAAT2 [1]", "result": "no effect"}]}
{"smiles": "C=CCN1CC(c2nc3ccccc3n2CCCOc2ccc(C(C)CC)cc2)CC1=O", "note": "(stereo not drawn) [GT922, 1-allyl-4-(1-(3-(4-(sec-butyl)phenoxy)propyl)-1H-benzo[d]imidazol-2-yl)pyrrolidin-2-one]", "values": [{"measurement": "kind of modulation of EAAT2 glutamate uptake in dose-response assays", "setting": "EAAT2 [1]", "result": "inhibitors"}]}
{"smiles": "C=CCN1CC(c2nc3ccccc3n2CCCCOc2ccc(C)c(C)c2)CC1=O", "note": "(stereo not drawn) [GT938, 1-allyl-4-(1-(4-(3,4-dimethylphenoxy)butyl)-1H-benzo[d]imidazol-2-yl)pyrrolidin-2-one]", "values": [{"measurement": "kind of modulation of EAAT2 glutamate uptake in dose-response assays", "setting": "EAAT2 [1]", "result": "inhibitors"}]}
{"smiles": "C=CCN1CC(c2nc3ccccc3n2CCCCOc2ccc(Cl)c(C)c2)CC1=O", "note": "(stereo not drawn) [GT939, 1-allyl-4-(1-(4-(4-chloro-3-methylphenoxy)butyl)-1H-benzo[d]imidazol-2-yl)pyrrolidin-2-one]", "values": [{"measurement": "effect on EAAT3-mediated glutamate transport", "setting": "EAAT3", "result": "no effect"}, {"measurement": "kind of modulation of EAAT2 glutamate uptake in dose-response assays", "setting": "EAAT2 [1]", "result": "PAMs"}, {"measurement": "EC50", "setting": "EAAT2 [1]; COS-7 cells transfected with EAAT2, compound 10 min 37 °C, 50 nM 3H-L-glutamate, mean±SEM, read-out: EC50 (ED50) of enhancement of EAAT2-mediated glutamate transport", "result": "0.7 ± 0.2", "unit": "nM"}, {"measurement": "effect on NMDA-induced calcium response", "setting": "NMDA receptors", "result": "no effects"}, {"measurement": "effect on Vmax of transport", "setting": "EAAT2 [2]", "result": "increased Vmax"}, {"measurement": "effect on EAAT1-mediated glutamate transport", "setting": "EAAT1", "result": "no effect"}]}
{"smiles": "COc1ccc2[nH]c(=O)c(C(c3nnnn3CCc3ccccc3)N3CCN(c4cccc(C(F)(F)F)c4)CC3)cc2c1", "note": "(stereo not drawn) [GT951, 6-methoxy-3-((1-phenethyl-1H-tetrazol-5-yl)(4-(3-(trifluoromethyl)phenyl)piperazin-1-yl)methyl)quinolin-2(1H)-one]", "values": [{"measurement": "effect on EAAT3-mediated glutamate transport", "setting": "EAAT3", "result": "no effect"}, {"measurement": "EC50", "setting": "cultured astrocytes; Rattus norvegicus, Astrocyte, cultured rat astrocytes, 50 nM 3H-L-glutamate, read-out: potency (EC50) of glutamate uptake enhancement in cultured astrocytes", "result": "0.3 ± 0.2", "unit": "nM"}, {"measurement": "efficacy of augmentation of glutamate transport in cultured astrocytes", "setting": "cultured astrocytes; cultured rat astrocytes", "result": "~27", "unit": "%"}, {"measurement": "effect on NMDA-induced calcium response", "setting": "NMDA receptors", "result": "no effects"}, {"measurement": "effect on EAAT1-mediated glutamate transport", "setting": "EAAT1", "result": "no effect"}]}
{"smiles": "O=C(c1ccc(S(=O)(=O)N2CCCC2)cc1)N1CCN(c2nc(-c3ccccc3)nc3sc4c(c23)CCC4)CC1", "note": "[GT988, (4-(2-phenyl-6,7-dihydro-5H-cyclopenta [4,5]thieno[2,3-d]pyrimidin-4-yl)piperazin-1-yl)(4-(pyrrolidin-1-ylsulfonyl)phenyl) methanone]", "values": [{"measurement": "kind of modulation of EAAT2 glutamate uptake in dose-response assays", "setting": "EAAT2 [1]", "result": "no effect"}]}
{"smiles": "Cc1cc(C)c2cc(C(c3nnnn3CCc3ccccc3)N3CCN(C(=O)c4ccco4)CC3)c(=O)[nH]c2c1", "note": "(stereo not drawn) [GT996, 3-((4-(furan-2-carbonyl)piperazin-1-yl)(1-phenethyl-1H-tetrazol-5-yl)methyl)-5,7-dimethylquinolin-2(1H)-one]", "values": [{"measurement": "modulation of glutamate transport in cultured astrocytes", "setting": "cultured astrocytes; cultured rat astrocytes, negative control", "result": "inactive"}]}
{"smiles": "COc1ccc(C2C(C#N)=C(N)OC3=C2C(=O)CC(c2cccc4ccccc24)C3)cc1", "note": "(stereo not drawn) [UCPH-101, 2-Amino-5,6,7,8-tetrahydro-4-(4-methoxyphenyl)-7-(naphthalen-1-yl)-5-oxo-4H-chromene-3-carbonitrile, reference compound]", "values": [{"measurement": "inhibition of glutamate uptake in cultured glial cells by selective EAAT inhibitors", "setting": "cultured astrocytes; 50 nM 3H-L-glutamate", "result": "partial inhibition"}]}
